# Test results published in US4256753A, “4-(2-Pyridylamino)phenylacetic acid derivatives” (Dainippon Pharmaceutical Co., Ltd., priority 1978, dated 1981).
# Where two headings read alike, the source gives them in different places.
# Columns and labels:
# [1] = test system: Carrageenin-induced hind paw edema; test: Carrageenin-induced hind paw edema in rats (CAR method); format: in vivo; details: Rattus norvegicus, po, read-out: Anti-inflammatory ED50, CAR
# Protocol: (a) Carrageenin-induced hind paw edema in rats (CAR method)
# The test was carried out according to the method described in Proc. Soc. Exp. Biol. Med., 111, 544 (1962).
# [2] = test system: Phenylquinone-induced writhing; test: Phenylquinone-induced writhing in mice (PQW method); format: in vivo; details: Mus musculus, po, read-out: Analgesic ED50, PQW
# Protocol: (a) Phenylquinone-induced writhing in mice (PQW method)
# The test was carried out according to the method described in Proc. Soc. Exp. Biol. Med., 95, 729 (1957).
# [3] = test system: Acetic acid-induced writhing; test: Acetic acid-induced writhing in rats (ACWR method); format: in vivo; details: Rattus norvegicus, po, read-out: Analgesic ED50, ACWR
# Protocol: (b) Acetic acid-induced writhing in rats (ACWR method)
# The test was carried out according to the method described in Arzneim. Forsch., 25, 1505 (1975).
# [4] = test system: Acetic acid-induced vascular permeability; test: Acetic acid-induced vascular permeability in mice (CAP method); format: in vivo; details: Mus musculus, po, read-out: Anti-inflammatory ED50, CAP
# Protocol: (b) Acetic acid-induced vascular permeability in mice (CAP method)
# The test was carried out according to the method described in Brit. J. Pharm. Chemother., 22, 246 (1964).
# [5] = Gastrointestinal ulcerogenicity in fasted rats; details: rat, in vivo, po
# Protocol: The test was carried out using fasted rats according to the method described in Arzneim.
# [6] = test system: adjuvant-induced arthritis; test: Prophylactic effect on adjuvant-induced arthritis in rats; format: in vivo, female rats of JCL:SD strain; details: for Arthritic incidence: 80 mg/kg/day p.o., days 0-20, vehicle control 100
# Anti-allergic activity = details: result in words, no test described
# in vivo = details: mouse, po
# [7] = mice, acetic acid-induced vascular permeability
SMILES,ED50 [1],ED50 [2],ED50 [3],"ED50 [4, 7]",TD50 [5],Arthritic incidence [6],anti-allergic activity (Anti-allergic activity),ED50 [4],"selectivity ratio ([5]; rats, p.o., UD50 divided by ED50 of CAR method, read-out: Safety index, ratio of UD50/ED50 (CAR method))",LD50 at 168 h (in vivo),"Arthritic index mean ± S.E., 22nd day ([6]; rat, in vivo)","Arthritic index mean ± S.E., 28th day ([6]; rat, in vivo)"
"CC(C(=O)O)c1ccc(Nc2ccccn2)c(Cl)c1 (centres unmarked) [B, 2-[3-Chloro-4-(2'-pyridylamino)phenyl]propionic acid]",13.1 mg/kg,8.62 mg/kg,1.8 mg/kg,3.18 mg/kg,,,,,,,,
"CC(C)Cc1ccc(C(C)C(=O)O)cc1 (centres unmarked) [Compound 1, 2-(4-isobutylphenyl)propionic acid, reference compound]",,50 mg/kg,9.43 mg/kg,,125 mg/kg,85.7%,does not show such an activity,7.11 mg/kg,,,,
"CC(C(=O)O)c1ccc(N(C)c2ccccn2)cc1 (centres unmarked) [Compound 2, 2-[4-[N-Methyl-N-(2'-pyridyl)amino]phenyl]propionic acid]",40 mg/kg,> 100 mg/kg,20 mg/kg,> 20 mg/kg,,,,,,,,
"CC(C(=O)O)c1ccc(Oc2ccccn2)cc1 (centres unmarked) [Compound 3, 2-[4-(2'-Pyridyloxy)phenyl]propionic acid]",20 mg/kg,80 mg/kg,5.51 mg/kg,6.74 mg/kg,,,,,,,,
"CC(C(=O)O)c1ccc(Nc2ccccn2)cc1 (centres unmarked) [Compound A, 2-[4-(2'-Pyridylamino)phenyl]propionic acid]",10 mg/kg,7.33 mg/kg,1.36 mg/kg,0.88 mg/kg,> 640 mg/kg,0%,shows an anti-allergic activity,,> 64,1910 mg/kg,1.3 ± 0.8,1.3 ± 0.6
